These results are taken from patent US20260250289A1, “BICYCLIC HETEROCYCLES AND THEIR USE AS WRN INHIBITORS” (Novartis AG, priority 2022, published 2026).

pIC50: −log10 of the molar value.

One experiment relates to SW48 cells. Put plainly: Proliferation assay SW48 (CellTiterGlo). In kind it is cell-based. As to conditions: Homo sapiens, SW48, 96 h, SW48 colon carcinoma cells, 96 hours, CellTiterGlo; geometric mean of at least 2; read-out: Proliferation Assay SW48 GI50. Summed up:
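Read-out is CellTiterGlo luminescence after 96 hours of compound exposure, with % growth calculated against day-0 and vehicle-treated ATP levels. SW48 seeded at 2,000 cells/well, dosed next day with eight 3-fold serial dilutions, 0.1% DMSO. GI50 reported as geometric mean, at least 2 replicates.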
Background: In ATP-based viability assays light output follows the ATP content of the culture.

The subject of a further experiment is DLD1-WRN-KO cells. Put plainly: Proliferation assay DLD1-WRN-KO (CellTiterGlo, off-target effects). In kind it is cell-based. To be noted: 96 hours, geometric mean of at least 2. Summed up:
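DLD1 cells with CRISPR knockout of WRN were exposed overnight-seeded to eight 3-fold compound dilutions (0.1% DMSO) for 96 h at 37 °C. Viability was read as ATP by CellTiterGlo luminescence against a day-0 plate, giving GI50 and residual viability at top concentration.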

For experiment [1], the target named is T1, WRN helicase (aa N517-P1238) (Homo sapiens, UniProt Q14191).
T1 construct: The core helicase motif of the WRN protein (aa N517-P1238) was produced for this assay; His (N); ZZ (N); 3C protease cleavage site (N); made in house; host or cells: Sf21 insect cells (baculovirus; virus and BIICs made in SF9)
The experiment is described as follows: WRN ATPase assay (DNA dependent ATP hydrolysis, ADP-Glo). Format: biochemical. As to conditions: 3 hours pre-incubation, 300 micromolar ATP, FLAP26 DNA; geometric mean of at least 2. Summed up:
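DNA-dependent ATP hydrolysis detected as ADP by ADP-Glo luminescence, using 300 μM ATP, 0.2 nM FLAP26 substrate and 10 nM WRN aa N517-P1238 (Tris pH 7.5 buffer, 2 mM MgCl2, 50 mM NaCl). IC50s fitted from normalized duplicate half-log dilutions; reported as geometric means of at least 2 replicates.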
A general note: In ADP-Glo the light output rises with the ADP produced.

T1 sequence (Q14191 517-1238): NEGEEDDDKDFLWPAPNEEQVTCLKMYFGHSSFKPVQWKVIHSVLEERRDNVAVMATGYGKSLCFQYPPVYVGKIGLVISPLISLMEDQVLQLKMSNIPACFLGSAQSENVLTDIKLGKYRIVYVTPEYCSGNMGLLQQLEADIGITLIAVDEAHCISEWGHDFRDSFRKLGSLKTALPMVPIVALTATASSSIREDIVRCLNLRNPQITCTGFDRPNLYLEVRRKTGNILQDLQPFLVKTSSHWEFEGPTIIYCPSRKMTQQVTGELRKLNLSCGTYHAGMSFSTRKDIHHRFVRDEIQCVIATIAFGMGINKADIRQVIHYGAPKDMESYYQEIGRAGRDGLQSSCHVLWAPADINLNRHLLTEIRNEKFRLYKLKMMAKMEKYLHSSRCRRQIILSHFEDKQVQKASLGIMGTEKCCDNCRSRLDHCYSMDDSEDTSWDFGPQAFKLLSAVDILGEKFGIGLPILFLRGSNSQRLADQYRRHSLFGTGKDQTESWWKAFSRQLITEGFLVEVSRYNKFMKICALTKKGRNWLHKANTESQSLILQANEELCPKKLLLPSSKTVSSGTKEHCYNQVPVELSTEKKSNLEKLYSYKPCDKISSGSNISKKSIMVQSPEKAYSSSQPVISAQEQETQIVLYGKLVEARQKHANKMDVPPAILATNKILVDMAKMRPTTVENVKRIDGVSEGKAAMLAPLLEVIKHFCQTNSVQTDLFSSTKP

For orientation: pIC50 means the IC50 on a negative log10 scale, so that one unit is a factor of ten. Read a low pIC50 as a large IC50. For the compound `CCc1c(N2CCN(C(=O)c3c(O)ccc4nccn34)CC2)c(=O)n2nc(C3=CCOCC3)nc2n1CC(=O)Nc1ccc(C(F)(F)F)cc1Cl` [Example 46, N-(2-chloro-4-(trifluoromethyl)phenyl)-2-(2-(3,6-dihydro-2H-pyran-4-yl)-5-ethyl-6-(4-(6-hydroxyimidazo[1,2-a]pyridine-5-carbonyl)piperazin-1-yl)-7-oxo-[1,2,4]triazolo[1,5-a]pyrimidin-4(7H)-yl)acetamide], the GI50 with SW48 cells was 200 nM; in the experiment with DLD1-WRN-KO cells it was above 10000 nM. This compound gave a pIC50 in experiment [1] of 7.05.
Take `CCc1ccc(NC(=O)Cn2c(C)c(N3CCN(C(C)=O)CC3)c(=O)n3nc(C4=CCOCC4)nc23)cc1Cl` [Example 30, 2-(6-(4-acetylpiperazin-1-yl)-2-(3,6-dihydro-2H-pyran-4-yl)-5-methyl-7-oxo-[1,2,4]triazolo[1,5-a]pyrimidin-4(7H)-yl)-N-(3-chloro-4-ethylphenyl)acetamide]: the GI50 in the experiment with SW48 cells is 2000 nM; in the experiment with DLD1-WRN-KO cells, above 10000 nM. The negative-log IC50 (pIC50) in experiment [1] was 7.00.
